Measurements published in patent US20070066561A1, “Drug delivery and targeting with vitamin B12 conjugates” (New York University, priority 2002, published 2007).
Values after ≈ are worked out from the molar mass of the structure shown.

Tests used:
[1] = tested on: HL60 Promyelocytic leukemia; assay: Cytotoxicity against human cell lines grown in culture, MTT assay; type: cell-based; conditions: 72 hr continuous incubation, 5% human serum, relative cell growth by MTT, means of duplicate experiments
From the text: (§1) The data below are means of duplicate experiments with similar results.

K562 Erythroleukemia = assay: as above; type: cell-based; conditions: 72 hr continuous incubation, 5% human serum, relative cell growth by MTT, means of duplicate experiments
From the text: as §1

KARPAS-291 Lymphoma = assay: as above; type: cell-based; conditions: 72 hr continuous incubation, 5% human serum, relative cell growth by MTT, means of duplicate experiments
From the text: as §1

transcobalamin II (TCII) = molecular target: T1, transcobalamin II (TCII) (Homo sapiens, UniProt P20062); assay: Binding to transcobalamin II; conditions: compared with control vitamin B12; listed as p-iodohippuric acid TFP ester conjugated to the e-cyanocobalamin via the 4,7,10-
T1 sequence (P20062 19-427): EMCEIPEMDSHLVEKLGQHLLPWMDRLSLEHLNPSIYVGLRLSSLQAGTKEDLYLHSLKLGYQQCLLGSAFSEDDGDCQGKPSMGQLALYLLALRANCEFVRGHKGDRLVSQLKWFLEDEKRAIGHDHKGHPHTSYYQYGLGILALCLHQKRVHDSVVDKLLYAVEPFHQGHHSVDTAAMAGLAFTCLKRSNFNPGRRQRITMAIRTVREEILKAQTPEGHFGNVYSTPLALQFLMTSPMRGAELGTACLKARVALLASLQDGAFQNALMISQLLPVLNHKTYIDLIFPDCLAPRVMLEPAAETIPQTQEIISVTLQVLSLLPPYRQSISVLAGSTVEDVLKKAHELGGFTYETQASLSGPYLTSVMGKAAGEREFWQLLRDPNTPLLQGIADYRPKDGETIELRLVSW
Procedure: This conjugate may be used as a standard for future B12 derivatives because of its higher rate of binding to TCII, which is required for efficient delivery to the appropriate receptors.
The p-iodohippuric acid TFP ester conjugated to the e-cyanocobalamin via the 4,7,10-trioxa-1,13-tridecanediamine linker was assessed for binding to transcobalamin II (TCII).

[2] = Bioactivity of cobalamin conjugates (test not described)
[3] = cited from earlier work
[4] = between pH about 4 and 7; cited from earlier work

CC(=O)O[C@H]1C(=O)[C@@]2(C)[C@H]([C@H](OC(=O)c3ccccc3)[C@]3(O)C[C@H](OC(=O)[C@H](O)[C@@H](NC(=O)c4ccccc4)c4ccccc4)C(C)=C1C3(C)C)[C@]1(OC(C)=O)CO[C@@H]1C[C@@H]2O [Taxol, Paclitaxel]
IC50 ([1]; HL-60): 0.15 ng/mL (≈ 0.176 nM) | IC50 (K562 Erythroleukemia; K562): 4 ng/mL (≈ 4.68 nM) | IC50 (KARPAS-291 Lymphoma): 2 ng/mL (≈ 2.34 nM)

B12-P-Hippuric acid-4,7,10-trioxa-1,13-tridecanediamine e-cyanocobalamin monocarboxylic acid conjugate [B12 P-Hippuric acid]
Binding to TCII (transcobalamin II (TCII)): substantially as great as for control vitamin B12 | Bioactivity [2]: bioactive

cyanocobalamin [B12]
Cytotoxicity, HL60 Promyelocytic leukemia [1]: 152 ng/mL | Cytotoxicity, K562 Erythroleukemia (K562 Erythroleukemia): 250 ng/mL | Cytotoxicity, KARPAS-291 Lymphoma (KARPAS-291 Lymphoma): 294 ng/mL | Solubility in acetone, ether, and chloroform [3]: insoluble | Solubility in lower alcohols and phenol [3]: moderately soluble | Solubility in water ([3]; room temperature): 12 mg/mL | Stability in aqueous solutions [4]: quite stable

p-iodohippuryl-1,12-diaminododecane conjugated to cyanocobalamin-e-carboxylate
Bioactivity [2]: most bioactive conjugate studied
